Data published in patent publication US11001590B2, “Pyrazolopyrimidine derivatives” (BAYER ANIMAL HEALTH GMBH, priority 2016, dated 2021).

Assays:
[1] = test system: Dirofilaria immitis microfilariae; test: In vitro assay 3: Dirofilaria immitis microfilariae (DIROIM L1), motility; details: 72 h, reduction of motility vs negative control, 72 h incubation
[2] = log P by HPLC on reversed phase columns (Method L0; [a] acidic, [b] neutral range)
Experimental: Calibration was done with straight-chain alkan-2-ones (with 3 to 16 carbon atoms) with known log P values (measurement of log P values using retention times with linear interpolation between successive alkanones). Lambda-max-values were determined using UV-spectra from 200 nm to 400 nm and the peak values of the chromatographic signals.

C. elegans Slo-1a = C. elegans Slo-1a (Caenorhabditis elegans, UniProt Q95V25); test: In vitro assay 1: C. elegans Slo-1a, action at a recombinant C. elegans CHO cell line (membrane potential measurement)
Chain of C. elegans Slo-1a (Q95V25 whole entry): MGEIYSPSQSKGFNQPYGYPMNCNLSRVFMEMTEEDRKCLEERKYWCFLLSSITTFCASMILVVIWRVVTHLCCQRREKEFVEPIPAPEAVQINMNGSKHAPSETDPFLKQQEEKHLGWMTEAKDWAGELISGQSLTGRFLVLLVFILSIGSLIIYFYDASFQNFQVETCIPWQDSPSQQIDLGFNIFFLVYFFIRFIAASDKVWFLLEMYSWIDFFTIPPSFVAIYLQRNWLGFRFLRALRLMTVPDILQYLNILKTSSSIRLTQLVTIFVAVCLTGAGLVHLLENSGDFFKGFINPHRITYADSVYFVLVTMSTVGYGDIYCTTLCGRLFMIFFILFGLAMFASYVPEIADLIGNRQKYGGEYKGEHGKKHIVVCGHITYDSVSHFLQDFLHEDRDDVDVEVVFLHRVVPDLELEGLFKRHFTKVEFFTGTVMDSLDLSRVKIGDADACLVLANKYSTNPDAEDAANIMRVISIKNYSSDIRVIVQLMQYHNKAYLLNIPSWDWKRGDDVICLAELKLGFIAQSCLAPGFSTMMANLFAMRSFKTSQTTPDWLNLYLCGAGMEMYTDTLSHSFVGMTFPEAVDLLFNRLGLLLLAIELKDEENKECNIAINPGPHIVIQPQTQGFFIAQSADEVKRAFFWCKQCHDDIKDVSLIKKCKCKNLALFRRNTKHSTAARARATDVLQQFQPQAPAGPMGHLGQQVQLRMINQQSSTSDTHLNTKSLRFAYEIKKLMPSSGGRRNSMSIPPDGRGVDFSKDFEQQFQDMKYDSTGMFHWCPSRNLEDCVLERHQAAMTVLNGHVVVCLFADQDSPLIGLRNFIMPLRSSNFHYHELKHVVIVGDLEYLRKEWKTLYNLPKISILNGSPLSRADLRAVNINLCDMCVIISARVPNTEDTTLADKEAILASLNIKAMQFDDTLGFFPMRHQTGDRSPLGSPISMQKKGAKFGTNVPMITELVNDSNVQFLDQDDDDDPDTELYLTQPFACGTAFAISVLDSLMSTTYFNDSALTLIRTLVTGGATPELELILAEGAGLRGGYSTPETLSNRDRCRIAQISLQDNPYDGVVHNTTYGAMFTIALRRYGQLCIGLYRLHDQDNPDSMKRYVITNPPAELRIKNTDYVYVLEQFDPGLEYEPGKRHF

| Structure (SMILES) | EC50 [1] [µg/mL] | chromatographic logP [2] | EC50 (C. elegans Slo-1a) [µM] |
| --- | --- | --- | --- |
| COCc1cccc(-c2c(C(F)(F)F)nn3c(C(C)C)c(C(=O)N[C@H]4CCOc5ccccc54)cnc23)c1 [Example 142] | < 10 | 4.6 | 0.0794 |
| CC(C)c1c(C(=O)N[C@H]2CCOc3ccccc32)cnc2c(-c3cc(Cl)cc(C(F)(F)F)c3)c(C(F)(F)F)nn12 [Example 143] | < 10 | 5.78 | 0.0126 |
| COCc1cccc(-c2c(C(F)(F)F)nn3c(C(C)C)c(C(=O)N[C@H]4CCc5ccccc54)cnc23)c1 [Example 144] | < 10 | 4.87 | 0.158 |
| Cc1nn2c(C(C)C)c(C(=O)N[C@H]3CCCc4ccccc43)cnc2c1-c1cccc(C(F)F)c1 [Example 145] | < 10 | 4.93 | 0.0316 |
| Cc1nn2c(C(C)C)c(C(=O)N[C@H]3CCCc4ccccc43)cnc2c1-c1cccc2c1OC(F)(F)O2 [Example 146] | < 0.1 | 5.47 | 0.0251 |
| Cc1nn2c(C(C)C)c(C(=O)N[C@H]3CCCc4ccccc43)cnc2c1-c1ccc2c(c1)OC(F)(F)O2 [Example 148] | < 10 | 5.59 | 0.0398 |
| CC(C)c1c(C(=O)N[C@H]2CCc3ccccc32)cnc2c(-c3cccc(OC(F)(F)F)c3)c(C(F)(F)F)nn12 [Example 149] | < 10 | 5.55 | 0.0631 |
| CC(C)c1c(C(=O)N[C@H]2CCc3ccccc32)cnc2c(-c3cc(Cl)cc(C(F)(F)F)c3)c(C(F)(F)F)nn12 [Example 150] | < 10 | 6.22 | 0.0501 |
| Cc1nn2c(C(C)C)c(C(=O)N[C@H]3CCc4ccccc43)cnc2c1-c1cccc(C(F)F)c1 [Example 151] | < 1 | 4.67 | 0.0316 |
| CC(C)c1c(C(=O)N[C@H]2CCc3ccccc32)cnc2c(-c3cncc(F)c3)c(C(F)(F)F)nn12 [Example 155] | < 10 | 4.25 | 3.16 |
| CC(C)c1c(C(=O)N[C@H]2CCc3ccccc32)cnc2c(-c3cncc(Cl)c3)c(C(F)(F)F)nn12 [Example 156] | < 10 | 4.7 | 0.631 |
| CC(C)c1c(C(=O)N[C@H]2CCc3ccccc32)cnc2c(-c3cccc(F)c3)c(C(F)(F)F)nn12 [Example 157] | < 10 | 5.02 | 0.1 |
| CC(C)c1c(C(=O)N[C@H]2CCc3ccccc32)cnc2c(-c3ccccc3F)c(C(F)(F)F)nn12 [Example 158] | < 10 | 4.76 | 0.158 |
| CC(C)c1c(C(=O)N[C@H]2CCc3ccccc32)cnc2c(-c3cc(F)c(F)c(F)c3)c(C(F)(F)F)nn12 [Example 159] | < 10 | 5.4 | 1 |
| COc1cc(-c2c(C(F)(F)F)nn3c(C(C)C)c(C(=O)N[C@H]4CCc5ccccc54)cnc23)ccc1F [Example 160] | < 10 | 4.89 | 0.1 |
| Cc1nn2c(C(C)C)c(C(=O)N[C@H]3CCc4ccccc43)cnc2c1-c1ccccc1 [Example 174] | < 0.1 | 4.59 | 0.0158 |
| Cc1nn2c(C(C)C)c(C(=O)N[C@H]3CCCc4ccccc43)cnc2c1-c1ccccc1 [Example 175] | < 10 | 4.94 | 0.0631 |
| Cc1nn2c(C(C)C)c(C(=O)N[C@H]3CCOc4ccccc43)cnc2c1-c1ccccc1 [Example 176] | < 0.1 | 4.28 | 0.0126 |
| COc1cccc(-c2c(C)nn3c(C(C)C)c(C(=O)N[C@H]4CCc5ccccc54)cnc23)n1 [Example 177, (S)—N-(2,3-Dihydro-1H-inden-1-yl)-7-isopropyl-3-(6-methoxypyridin-2-yl)-2-methylpyrazolo[1,5-a]pyrimidine-6-carboxamide] | < 10 | 4.89 | 0.158 |
| Cc1nn2c(C(C)C)c(C(=O)N[C@H]3CCc4ccccc43)cnc2c1-c1cccc(F)n1 [Example 178] | < 10 | 4.6 | 0.794 |
| Cc1nn2c(C(C)C)c(C(=O)N[C@H]3CCc4ccccc43)cnc2c1-c1cccc(C(F)(F)F)n1 [Example 179] | < 10 | 5.39 | 0.398 |
| Cc1nn2c(C(C)C)c(C(=O)N[C@H]3CCOc4ccccc43)cnc2c1-c1ccc(Cl)cc1Cl [Example 180] | < 0.1 | 5.02 | 0.00794 |
| Cc1nn2c(C(C)C)c(C(=O)N[C@H]3CCc4ccccc43)cnc2c1-c1ccc(Cl)cc1Cl [Example 181] | < 0.1 | 5.31 | 0.0126 |
| Cc1nn2c(C(C)C)c(C(=O)N[C@H]3CCCc4ccccc43)cnc2c1-c1ccc(Cl)cc1Cl [Example 182] | < 1 | 5.59 | 0.0126 |
| Cc1nn2c(C(C)C)c(C(=O)N[C@H]3CCc4ccccc43)cnc2c1-c1cccc(Cl)n1 [Example 183] | < 10 | 5.1 | 0.398 |

| Structure (SMILES) | EC50 [1] [µg/mL] | chromatographic logP [2] | EC50 (C. elegans Slo-1a) [µM] |
| --- | --- | --- | --- |
| Cc1nn2c(C(C)C)c(C(=O)N[C@H]3CCOc4ccccc43)cnc2c1-c1cc(F)c(F)c(F)c1 [Example 185] | < 1 | 4.97 | 0.0126 |
| Cc1nn2c(C(C)C)c(C(=O)N[C@H]3CCOc4ccccc43)cnc2c1-c1cc(F)c(Cl)c(F)c1 [Example 190] | < 1 | 5.39 | 0.0251 |
| Cc1nn2c(C(C)C)c(C(=O)N[C@H]3CCOc4ccccc43)cnc2c1-c1cccc(Cl)n1 [Example 195] | < 10 | 4.85 | 0.158 |
| CC(C)c1c(C(=O)N[C@H]2CCOc3ccccc32)cnc2c(-c3cc(Cl)cc(Cl)c3)c(C(F)(F)F)nn12 [Example 196] | < 10 | 5.84 | 0.0501 |
| CC(C)c1c(C(=O)N[C@H]2CCOc3ccccc32)cnc2c(-c3cc(Cl)c(F)c(Cl)c3)c(C(F)(F)F)nn12 [Example 197] | < 10 | 5.48 | 0.501 |
| CSc1nn2c(C(C)C)c(C(=O)N[C@H]3CCOc4ccccc43)cnc2c1-c1cc(Cl)cc(Cl)c1 [Example 202] | < 10 | 6.35 | 0.0251 |
| CSc1nn2c(C(C)C)c(C(=O)N[C@H]3CCc4ccccc43)cnc2c1-c1cc(Cl)cc(Cl)c1 [Example 203] | < 10 | 6.67 | 0.2 |
| Cc1nn2c(C(C)C)c(C(=O)N[C@H]3CCOc4ccccc43)cnc2c1-c1cccc(Br)c1 [Example 204] | < 0.1 | 5.02 | 0.0158 |
| Cc1nn2c(C(C)C)c(C(=O)N[C@H]3CCc4ccccc43)cnc2c1-c1cccc(Br)c1 [Example 205] | < 0.1 | 5.31 | 0.0251 |
| Cc1nn2c(C(C)C)c(C(=O)N[C@H]3CCc4ccccc43)cnc2c1-c1ccc(Br)cc1 [Example 207] | < 10 | 5.31 | 0.0501 |
| Cc1nn2c(C(C)C)c(C(=O)NC3COc4ccccc43)cnc2c1-c1c(F)cccc1F (stereo not drawn) [Example 210] | < 1 | 3.99 | 0.158 |
| CCS(=O)(=O)c1nn2c(C(C)C)c(C(=O)N[C@H]3CCc4ccccc43)cnc2c1-c1cc(Cl)cc(Cl)c1 [Example 211] | < 10 | 4.62 | 1.26 |
| CCS(=O)(=O)c1nn2c(C(C)C)c(C(=O)N[C@H]3CCOc4ccccc43)cnc2c1-c1cc(Cl)cc(Cl)c1 [Example 212] | < 10 | 4.37 | 0.501 |
| CC(C)c1c(C(=O)N[C@H]2CCOc3ccccc32)cnc2c(-c3cc(Cl)cc(Cl)c3)c(S(=O)(=O)C(C)C)nn12 [Example 217] | < 10 | 4.57 | 0.398 |
| Cc1nn2c(C(C)C)c(C(=O)N[C@H]3CCOc4ccccc43)cnc2c1-c1ccc(F)cc1Cl [Example 218] | < 0.1 | 4.51 | 0.00158 |
| Cc1nn2c(C(C)C)c(C(=O)N[C@H]3CCOc4ccccc43)cnc2c1-c1ccc(Cl)c(F)c1 [Example 220] | < 1 | 5.08 | 0.02 |
| Cc1nn2c(C(C)C)c(C(=O)N[C@H]3CCOc4ccccc43)cnc2c1-c1cnc(F)c(F)c1 [Example 221] | < 1 | 4.13 | 0.01 |
| CCC(C)c1c(C(=O)N[C@H]2CCc3ccccc32)cnc2c(-c3c(F)cccc3Cl)c(C)nn12 (stereo partly drawn) [Example 222] | < 0.1 | 4.98 | 0.0398 |
| Cc1nn2c(C(C)C)c(C(=O)N[C@H]3CCc4ccccc43)cnc2c1-c1c(Cl)cccc1Cl [Example 223] | < 1 | 4.87 | 0.0126 |
| Cc1nn2c(CC(C)C)c(C(=O)N[C@H]3CCc4ccccc43)cnc2c1-c1c(F)cccc1Cl [Example 224] | < 1 | 4.82 | 0.0316 |
| Cc1nn2c(CC(C)C)c(C(=O)N[C@H]3CCOc4ccccc43)cnc2c1-c1c(F)cccc1Cl [Example 225] | < 0.1 | 4.56 | 0.0126 |
| Cc1nn2c(Cc3ccc(F)cc3)c(C(=O)N[C@H]3CCc4ccccc43)cnc2c1-c1c(F)cccc1Cl [Example 227] | < 10 | 4.92 | 2 |
| Cc1nn2c(Cc3ccc(F)cc3)c(C(=O)N[C@H]3CCOc4ccccc43)cnc2c1-c1c(F)cccc1Cl [Example 228] | < 1 | 4.72 | 3.16 |
| CC(C)c1c(C(=O)N[C@H]2CCc3ccccc32)cnc2c(-c3cc(Cl)cc(Cl)c3)c(S(C)(=O)=O)nn12 [Example 229] | < 1 | 4.35 | 0.0631 |
